US9981916B2 (Genentech, Inc., priority 2013, dated 2018)

Biological target: T1, RORc ligand binding domain (Homo sapiens, UniProt P51449)
T1 construct: host or cells: E. coli
T1 sequence (P51449 269-508 limits assumed): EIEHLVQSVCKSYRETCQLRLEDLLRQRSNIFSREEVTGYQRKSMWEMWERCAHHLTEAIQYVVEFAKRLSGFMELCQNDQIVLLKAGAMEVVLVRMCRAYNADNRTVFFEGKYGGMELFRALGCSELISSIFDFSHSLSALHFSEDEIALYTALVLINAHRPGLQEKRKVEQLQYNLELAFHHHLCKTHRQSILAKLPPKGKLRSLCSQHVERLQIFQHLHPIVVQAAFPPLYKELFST
Assay: In vitro RORc ligand binding assay (25-[3H]hydroxycholesterol displacement, filter binding)
Details: 6 nM 25-[3H]hydroxycholesterol, 0.6 ug/mL RORc receptor, 3 h at 25° C.
Outline: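 Compounds in 5% DMSO, either dose-response or screened at 1 and 10 uM, competed with 6 nM 25-[3H]hydroxycholesterol for 0.6 ug/mL RORc over 3 h at 25° C (HEPES pH 7.4, NaCl, MgCl2, DTT, BSA buffer). Bound tracer was filter-harvested and counted; nonspecific binding came from 1 uM 25-hydroxycholesterol.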

COCC(=O)N[C@@]12CC[C@@H](c3cc(-c4ccccc4F)nnc31)C2(C)C [Example 83, N-[(5R,8R)-3-(2-fluorophenyl)-9,9-dimethyl-6,7-dihydro-5,8-methanocinnolin-8(5H)-yl]-2-methoxyacetamide]
IC50: 1170 nM

Cc1nnc(NC(=O)[C@]23CC[C@H](c4cc(-c5c(F)cccc5F)nnc42)C3(C)C)o1 [Example 84, (5S,8S)-3-(2,6-difluorophenyl)-9,9-dimethyl-N-(5-methyl-1,3,4-oxadiazol-2-yl)-6,7-dihydro-5,8-methanocinnoline-8(5H)-carboxamide]
IC50: 1010 nM

Cc1noc(NC(=O)[C@]23CC[C@H](c4cc(-c5c(F)cccc5F)nnc42)C3(C)C)n1 [Example 85, (5S,8S)-3-(2,6-difluorophenyl)-9,9-dimethyl-N-(3-methyl-1,2,4-oxadiazol-5-yl)-6,7-dihydro-5,8-methanocinnoline-8(5H)-carboxamide]
IC50: 5650 nM

CC1(C)[C@@H]2CC[C@@]1(C(=O)N1CC(O)C1)c1nnc(-c3c(F)cccc3F)cc12 [Example 86, [(5S,8S)-3-(2,6-difluorophenyl)-9,9-dimethyl-6,7-dihydro-5,8-methanocinnolin-8(5H)-yl](3-hydroxyazetidin-1-yl)methanone]
IC50: 97 nM

CC(C)C(=O)N[C@@]12CC[C@@H](c3cc(-c4ccccc4F)nnc31)C2(C)C [Example 87, N-[(5R,8R)-3-(2-fluorophenyl)-9,9-dimethyl-6,7-dihydro-5,8-methanocinnolin-8(5H)-yl]-2-methylpropanamide]
IC50: 5190 nM

CC1(C)[C@H]2CC[C@]1(NC(=O)CO)c1nnc(-c3ccccc3F)cc12 [Example 88, N-[(5R,8R)-3-(2-fluorophenyl)-9,9-dimethyl-6,7-dihydro-5,8-methanocinnolin-8(5H)-yl]-2-hydroxyacetamide]
IC50: 1440 nM

CN(C)CC(=O)N[C@@]12CC[C@@H](c3cc(-c4ccccc4F)nnc31)C2(C)C [Example 89, N-[(5R,8R)-3-(2-fluorophenyl)-9,9-dimethyl-6,7-dihydro-5,8-methanocinnolin-8(5H)-yl]-N~2~,N~2~- dimethylglycinamide]
IC50: 5190 nM

CN(C)[C@@]12CC[C@@H](c3cc(-c4ccccc4F)nnc31)C2(C)C [Example 90, (5R,8R)-3-(2-fluorophenyl)-N,N,9,9-tetramethyl-6,7-dihydro-5,8-methanocinnolin-8(5H)-amine]
IC50: 192 nM

CONC(=O)[C@]12CC[C@H](c3cc(-c4c(F)cccc4F)nnc31)C2(C)C [Example 91, (5S,8S)-3-(2,6-difluorophenyl)-N-methoxy-9,9-dimethyl-6,7-dihydro-5,8-methanocinnoline-8(5H)-carboxamide]
IC50: 384 nM

CC1(O)CN(C(=O)[C@]23CC[C@H](c4cc(-c5c(F)cccc5F)nnc42)C3(C)C)C1 [Example 92, [(5S,8S)-3-(2,6-difluorophenyl)-9,9-dimethyl-6,7-dihydro-5,8-methanocinnolin-8(5H)-yl](3-hydroxy-3-methylazetidin-1-yl)methanone]
IC50: 2990 nM

CC1(C)[C@@H]2CC[C@@]1(C(=O)N1CC(F)C1)c1nnc(-c3c(F)cccc3F)cc12 [Example 93, [(5S,8S)-3-(2,6-difluorophenyl)-9,9-dimethyl-6,7-dihydro-5,8-methanocinnolin-8(5H)-yl](3-fluoroazetidin-1-yl)methanone]
IC50: 127 nM

CC(=O)Nc1ccc(-c2cc3c(nn2)[C@@]2(C)CC[C@@H]3C2(C)C)cn1 [Example 95, N-{5-[(5R,8S)-8,9,9-trimethyl-5,6,7,8-tetrahydro-5,8-methanocinnolin-3-yl]pyridin-2-yl}acetamide]
IC50: 3320 nM

Cn1cc(-c2cc3c(nn2)[C@@]2(C)CC[C@@H]3C2(C)C)cn1 [Example 96, (5R,8S)-8,9,9-trimethyl-3-(1-methyl-1H-pyrazol-4-yl)-5,6,7,8-tetrahydro-5,8-methanocinnoline]
IC50: 5480 nM

CC1(C)[C@H]2CC[C@]1(C)c1nnc(Oc3c(F)cccc3Cl)cc12 [Example 97, (5R,8S)-3-(2-chloro-6-fluorophenoxy)-8,9,9-trimethyl-5,6,7,8-tetrahydro-5,8-methanocinnoline]
IC50: 87 nM

CC1(C)[C@H]2CC[C@]1(C)c1nnc(Oc3ccccc3F)cc12 [Example 98, (5R,8S)-3-(2-fluorophenoxy)-8,9,9-trimethyl-5,6,7,8-tetrahydro-5,8-methanocinnoline]
IC50: 600 nM

CC1(C)[C@H]2CC[C@]1(C)c1nnc(Oc3c(F)cccc3F)cc12 [Example 99, (5R,8S)-3-(2,6-difluorophenoxy)-8,9,9-trimethyl-5,6,7,8-tetrahydro-5,8-methanocinnoline]
IC50: 280 nM

CC1CN(C(=O)[C@]23CC[C@H](c4cc(-c5c(F)cccc5F)nnc42)C3(C)C)C1 [Example 100, [(5S,8S)-3-(2,6-difluorophenyl)-9,9-dimethyl-6,7-dihydro-5,8-methanocinnolin-8(5H)-yl](3-methylazetidin-1-yl)methanone]
IC50: 70 nM

CC1(C)[C@H]2CC[C@]1(c1nnco1)c1nnc(-c3c(F)cccc3F)cc12 [Example 101]
IC50: 192 nM

CC1(C)[C@H]2CC[C@]1(c1ncco1)c1nnc(-c3c(F)cccc3F)cc12 [Example 102, (5R,8R)-3-(2,6-difluorophenyl)-9,9-dimethyl-8-(1,3-oxazol-2-yl)-5,6,7,8-tetrahydro-5,8-methanocinnoline]
IC50: 17 nM

Cc1nnc([C@]23CC[C@H](c4cc(-c5c(F)cccc5F)nnc42)C3(C)C)o1 [Example 103, (5S,8S)-3-(2,6-difluorophenyl)-9,9-dimethyl-8-(5-methyl-1,3,4-oxadiazol-2-yl)-5,6,7,8-tetrahydro-5,8-methanocinnoline]
IC50: 205 nM

CC1(C)[C@H]2CC[C@]1(c1cnco1)c1nnc(-c3c(F)cccc3F)cc12 [Example 104, (5R,8R)-3-(2,6-difluorophenyl)-9,9-dimethyl-8-(1,3-oxazol-5-yl)-5,6,7,8-tetrahydro-5,8-methanocinnoline]
IC50: 222 nM

COc1nnc([C@@]23CC[C@@H](c4cc(-c5c(F)cccc5F)nnc42)C3(C)C)o1 [Example 105, (5R,8R)-3-(2,6-difluorophenyl)-8-(5-methoxy-1,3,4-oxadiazol-2-yl)-9,9-dimethyl-5,6,7,8-tetrahydro-5,8-methanocinnoline]
IC50: 261 nM

CC1(C)[C@H]2CC[C@]1(n1cnnc1)c1nnc(-c3c(F)cccc3F)cc12 [Example 107, (5R,8R)-3-(2,6-difluorophenyl)-9,9-dimethyl-8-(4H-1,2,4-triazol-4-yl)-5,6,7,8-tetrahydro-5,8-methanocinnoline]
IC50: 1500 nM

Cc1coc([C@@]23CC[C@@H](c4cc(-c5c(F)cccc5F)nnc42)C3(C)C)n1 [Example 108, (5R,8R)-3-(2,6-difluorophenyl)-9,9-dimethyl-8-(4-methyl-1,3-oxazol-2-yl)-5,6,7,8-tetrahydro-5,8-methanocinnoline]
IC50: 96 nM

CC1(C)[C@H]2CC[C@]1(N1CCCC1=O)c1nnc(-c3c(F)cccc3F)cc12 [Example 109, 1-[(5R,8R)-3-(2,6-difluorophenyl)-9,9-dimethyl-6,7-dihydro-5,8-methanocinnolin-8(5H)-yl]pyrrolidin-2-one]
IC50: 201 nM

CC1(C)[C@@H]2CC[C@@]1(c1nnco1)c1nnc(-c3c(F)cccc3F)cc12 [Example 110, (5S,8S)-3-(2,6-difluorophenyl)-9,9-dimethyl-8-(1,3,4-oxadiazol-2-yl)-5,6,7,8-tetrahydro-5,8-methanocinnoline]
IC50: 186 nM

CC1(C)[C@@H]2CC[C@@]1(c1nnc(CO)o1)c1nnc(-c3c(F)cccc3F)cc12 [Example 111, {5-[(5S,8S)-3-(2,6-difluorophenyl)-9,9-dimethyl-6,7-dihydro-5,8-methanocinnolin-8(5H)-yl]-1,3,4-oxadiazol-2-yl}methanol]
IC50: 195 nM

Cc1cnc([C@@]23CC[C@@H](c4cc(-c5c(F)cccc5F)nnc42)C3(C)C)o1 [Example 112, (5R,8R)-3-(2,6-difluorophenyl)-9,9-dimethyl-8-(5-methyl-1,3-oxazol-2-yl)-5,6,7,8-tetrahydro-5,8-methanocinnoline]
IC50: 27 nM

CC1(C)[C@H]2CC[C@]1(c1ccn[nH]1)c1nnc(-c3c(F)cccc3F)cc12 [Example 113, (5R,8S)-3-(2,6-difluorophenyl)-9,9-dimethyl-8-(1H-pyrazol-5-yl)-5,6,7,8-tetrahydro-5,8-methanocinnoline]
IC50: 43 nM

CC1(C)[C@H]2CC[C@]1(c1cocn1)c1nnc(-c3c(F)cccc3F)cc12 [Example 114, (5R,8S)-3-(2,6-difluorophenyl)-9,9-dimethyl-8-(1,3-oxazol-4-yl)-5,6,7,8-tetrahydro-5,8-methanocinnoline]
IC50: 39 nM

Cc1ncc([C@@]23CC[C@@H](c4cc(-c5c(F)cccc5F)nnc42)C3(C)C)o1 [Example 117, (5R,8R)-3-(2,6-difluorophenyl)-9,9-dimethyl-8-(2-methyl-1,3-oxazol-5-yl)-5,6,7,8-tetrahydro-5,8-methanocinnoline]
IC50: 19 nM

Cc1ncoc1[C@@]12CC[C@@H](c3cc(-c4c(F)cccc4F)nnc31)C2(C)C [Example 118, (5R,8R)-3-(2,6-difluorophenyl)-9,9-dimethyl-8-(4-methyl-1,3-oxazol-5-yl)-5,6,7,8-tetrahydro-5,8-methanocinnoline]
IC50: 134 nM

CC1(C)[C@H]2CC[C@]1(COc1ccccn1)c1nnc(-c3c(F)cccc3F)cc12 [Example 120, (5R,8R)-3-(2,6-difluorophenyl)-9,9-dimethyl-8-[(pyridin-2-yloxy)methyl]-5,6,7,8-tetrahydro-5,8-methanocinnoline]
IC50: 126 nM
